According to PMC8908504 (ACS Omega, 2022):
“And” between values parts separate entries of the source, which are not always exact repeats. Equal values may be shown once. Read-outs that look alike come from different tables or passages of the source.

How the values were obtained:
HEP-G2 cells = assay: MTT cell viability assay, HEP-G2 cells; conditions: for LD50: 50% reduction of viability
From the text: (§1) In addition to the activity, basic toxicological properties of the newly synthesized compounds were also investigated by using the 3-(4,5-dimethylthiazol-2-yl)-2,5-diphenyltetrazolium bromide (MTT) cell viability assay on mouse TAMH and human HEP-G2 hepatic cell lines (see Table 2). Both cell lines are established for the evaluation of hepatotoxicity.[42],[43]
(§2) The culturing of the mouse liver TAMH and human liver cancer HEP-G2 cell lines and the MTT assay used to evaluate cell viability were carried out as previously described elsewhere in detail.[27],[29] […] The medium in the wells was then replaced with the medium containing the compounds. Control wells contained an equivalent number of cells and 1% (v/v) DMSO. Wells without cells were used to determine the background optical density (OD) and were treated as the control wells. After 24 or 48 h of incubation with the compound, the respective medium was replaced with a fresh medium supplemented with 10% (v/v) of a 2.5 mg/mL solution of MTT. The plates were incubated for 4 h. Then, the culture medium was carefully aspirated off and 50 μL of DMSO was added to each well to dissolve the formazan crystals. The ODs of each well were measured at λ = 570 nm with a SpectraMax 190 microplate reader.
(§3) The calculated T/Ccorr. values were plotted against the log(concentration). The LD50 and LD25 values were determined by using GraphPad Prism 6. […] The values are given as the mean with SD of at least three independent experiments.

[1] = log D7.4 estimation by HPLC-based method; type: physicochemical; conditions: HPLC, Phenomenex Luna 5 μm Phenyl-Hexyl column
Protocol: The log D7.4 values were estimated using a common HPLC-based method in accordance with guideline OPPTS 830.7570 of the United States Environmental Protection Agency (EPA). The HPLC measurements were performed with a Phenomenex Luna 5 μm Phenyl-Hexyl 100 Å column (150 × 4.6 mm). […]. Uracil was used to measure the unretained peak time. To obtain a calibration function, the logarithm of the capacity factors for the reference substances was then plotted against the corresponding log P values taken from the mentioned guideline, which are equivalent to the log D7.4 values for non-ionizable compounds like the reference substances used for calibration. With this calibration function, it was possible to estimate the log D7.4 value from the corresponding retention time for each compound to be tested. For the measurement, 2 mg of the reference substances was each dissolved in 1 mL of methanol. A reference mixture was then obtained by combining 50 μL of each reference solution. The reference mixture was measured before and after the substances to be tested. The mean value from both measurements was used for the calibration line. The substances to be tested were injected as a solution in methanol (2 mg/mL), and the retention time was determined as the mean value from two measurements.

KV7.2/3 channel = KV7.2/3 channel (Homo sapiens, UniProt O43525+O43526); assay: KV7.2/3 channel opening assay (thallium-sensitive fluorescence); type: cell-based; conditions: for EC50 / efficacy: HEK293 cells overexpressing KV7.2/3; for KV7.2/3 channel opening activity (in words): inactive = no channel opening activity detected up to a concentration of 10 μM; for efficacy: relative to maximum signal of flupirtine (=100%)
Protocol: To evaluate the biological activity, the synthesized analogues were tested on HEK293 cells overexpressing the KV7.2/3 channel. The measurement was carried out in a fluorescence-based assay in which a thallium-sensitive dye generated the fluorescence signal. Due to its similarity to potassium, thallium can also pass through KV7 channels. The intensity of the fluorescence signal correlates with the amount of intracellular thallium and thus with the ability of the compounds to open KV7 channels. To determine the potency, the fluorescence intensity was measured as a function of the compound concentration. The efficacy was determined relative to the maximum fluorescence signal induced by flupirtine. For a summary of the activity data, see Table 2.
The cell culture of the KV7.2/3 transfected HEK293 cells (HEK293 KCNQ2/3 cells from SB Drug Discovery, Glasgow, UK) used for the assay and the processing of the obtained data were performed as described in earlier work.[27],[29] Briefly, 60,000 cells/well were seeded into 96-well microtiter plates for fluorescence-based assays (4titude Vision Plate Black 96-Well microtiter plates from ThermoScientic) and incubated for 24 h. After incubation, the medium was changed to 200 μL/well loading buffer containing 5 mmol/L probenecid and incubated for 1 h at room temperature. Subsequently, the test compounds dissolved in DMSO were added to the wells to the desired concentrations and further incubated for 30 min. As a control, the loading buffer with a DMSO concentration corresponding to the substance samples (1% (V/V)) was used. Fluorescence measurements were performed on the Infinite F200 Pro plate reader (Tecan) set at […]/emission wavelengths of 485 and 535 nm, respectively. After measuring the background fluorescence (baseline) for 20 s, a stimulus buffer (25 mmol/L K^+, 15 mmol/L Tl^+) was added just before the fluorescence of each well was measured.
The calculations to obtain dose–response curves were performed in the same manner as in previous investigations.[27],[29] Briefly, the fluorescence intensity was normalized with the baseline signal (F/F0) at each time of signal acquisition. To obtain the corrected negative control, a value of 1 was subtracted from the normalized value of the negative control. Subsequently, the value of the corrected negative control was subtracted from the maximum (corr. F/F0) value of a compound in a defined concentration (corr. ΔF/F0) and then plotted against the logarithmic concentration. The EC50 value was calculated as relative values with GraphPad Prism 6 (La Jolla, CA, USA), that is, the inflection points of the sigmoidal curves. The Emax value, the maximum response, indicates the intrinsic activity of a compound. This value was determined relative to flupirtine (1), where the maximum corr. ΔF/F0 value of flupirtine (1) was defined as 100%. The EC50 and Emax value of a compound is the mean of at least three independent experiments ± standard deviation (SD).

TAMH cells = assay: MTT cell viability assay, TAMH cells; conditions: for LD50: 50% reduction of viability
From the text: as §1, §2, §3

[2] = HEP-G2 cells, MTT assay, 24 h exposure, 25% reduction of viability
[3] = HEP-G2 cells, MTT assay, 24 h exposure
[4] = pH 7.4, HPLC, calibration C, read-out: logD7.4
[5] = pH 7.4, HPLC, calibration D, read-out: logD7.4
[6] = pH 7.4, HPLC, mean of two calibrations, read-out: logD7.4 (mean)
[7] = pH 7.4, estimated by HPLC-based method, pH 7.4, read-out: log D7.4
[8] = TAMH cells, MTT assay, 24 h exposure, 25% reduction of viability
[9] = TAMH cells, MTT assay, 24 h exposure
[10] = pH 7.4, HPLC, calibration A1, read-out: logD7.4
[11] = pH 7.4, HPLC, calibration B1, read-out: logD7.4
[12] = concentration for half-maximal channel opening, mean ± SD, ≥3 determinations

KV7.2/3 channel, sequence (O43526 whole entry): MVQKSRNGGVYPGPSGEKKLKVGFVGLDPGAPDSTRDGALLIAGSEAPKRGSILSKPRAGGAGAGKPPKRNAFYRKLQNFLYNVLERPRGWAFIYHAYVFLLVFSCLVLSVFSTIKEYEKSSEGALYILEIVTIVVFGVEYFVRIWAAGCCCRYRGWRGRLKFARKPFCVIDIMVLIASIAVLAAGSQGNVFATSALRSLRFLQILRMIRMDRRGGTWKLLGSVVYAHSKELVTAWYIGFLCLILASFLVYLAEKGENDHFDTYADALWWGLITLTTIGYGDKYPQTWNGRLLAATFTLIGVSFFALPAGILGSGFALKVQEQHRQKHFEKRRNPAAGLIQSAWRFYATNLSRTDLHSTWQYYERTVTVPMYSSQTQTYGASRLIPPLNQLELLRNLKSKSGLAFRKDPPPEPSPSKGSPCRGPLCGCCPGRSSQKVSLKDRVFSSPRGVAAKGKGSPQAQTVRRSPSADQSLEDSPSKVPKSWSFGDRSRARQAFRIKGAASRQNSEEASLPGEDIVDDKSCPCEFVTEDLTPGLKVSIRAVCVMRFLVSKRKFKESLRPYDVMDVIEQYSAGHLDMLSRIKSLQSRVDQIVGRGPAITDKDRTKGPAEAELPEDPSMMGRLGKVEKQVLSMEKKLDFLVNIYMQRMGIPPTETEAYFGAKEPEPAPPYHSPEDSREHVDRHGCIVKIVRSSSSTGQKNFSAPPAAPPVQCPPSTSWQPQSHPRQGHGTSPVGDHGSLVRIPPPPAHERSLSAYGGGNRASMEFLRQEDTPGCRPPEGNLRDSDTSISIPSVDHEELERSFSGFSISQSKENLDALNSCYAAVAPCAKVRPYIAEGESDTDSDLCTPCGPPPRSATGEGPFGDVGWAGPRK
KV7.2/3 channel, sequence (O43525 whole entry): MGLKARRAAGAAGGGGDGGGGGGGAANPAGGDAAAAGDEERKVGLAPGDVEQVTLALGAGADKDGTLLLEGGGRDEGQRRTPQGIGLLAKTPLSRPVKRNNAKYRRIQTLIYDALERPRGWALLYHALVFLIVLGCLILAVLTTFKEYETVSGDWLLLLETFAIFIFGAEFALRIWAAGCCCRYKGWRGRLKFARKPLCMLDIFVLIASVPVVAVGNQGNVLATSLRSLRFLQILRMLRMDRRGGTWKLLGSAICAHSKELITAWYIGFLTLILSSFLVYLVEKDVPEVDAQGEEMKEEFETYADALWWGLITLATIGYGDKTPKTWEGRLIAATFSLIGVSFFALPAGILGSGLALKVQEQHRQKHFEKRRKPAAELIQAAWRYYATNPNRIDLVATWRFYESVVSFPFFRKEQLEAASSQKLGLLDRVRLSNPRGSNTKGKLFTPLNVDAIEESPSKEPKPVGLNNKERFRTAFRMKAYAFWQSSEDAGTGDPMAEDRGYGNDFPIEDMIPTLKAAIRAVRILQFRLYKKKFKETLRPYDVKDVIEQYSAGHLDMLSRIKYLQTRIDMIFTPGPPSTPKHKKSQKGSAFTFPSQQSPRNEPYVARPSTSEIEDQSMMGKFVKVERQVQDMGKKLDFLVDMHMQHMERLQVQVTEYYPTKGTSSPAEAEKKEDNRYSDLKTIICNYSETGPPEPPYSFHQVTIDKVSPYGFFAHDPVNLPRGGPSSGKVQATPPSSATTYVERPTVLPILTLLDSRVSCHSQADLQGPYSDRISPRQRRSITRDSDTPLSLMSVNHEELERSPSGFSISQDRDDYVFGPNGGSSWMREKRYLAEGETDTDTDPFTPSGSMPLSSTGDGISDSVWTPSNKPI

Compound	LD25 (HEP-G2 cells; [2])	LD50 (HEP-G2 cells; [3])	chromatographic logD [1, 4]	chromatographic logD [1, 5]	chromatographic logD [1, 6]	chromatographic logD [1, 7]	EC50 (KV7.2/3 channel; footnote e)	KV7.2/3 channel opening activity (in words) (KV7.2/3 channel)	LD25 (TAMH cells; [8])	LD50 (TAMH cells; [9])	chromatographic logD [1, 10]	chromatographic logD [1, 11]	loss of potency (factor) (KV7.2/3 channel; 36a compared with 36b)	EC50 (KV7.2/3 channel; [12])	efficacy (KV7.2/3 channel)	LD50 (HEP-G2 cells; HEP-G2 cells, MTT assay, 24 h exposure, listed as flupirtine)	LD25 (HEP-G2 cells; human, 24 h)	LD50 (TAMH cells; TAMH cells, MTT assay, 24 h exposure, listed as flupirtine)	LD25 (TAMH cells; mouse, 24 h)
COc1cc(NCc2ccc(F)cc2)ccc1C(=O)NCC(C)C [28a, 4-[(4-Fluorobenzyl)amino]-N-isobutyl-2-methoxybenzamide]	31 ± 13 µM	42 ± 7 µM	3.79	3.79	3.8	3.8	> 10 µM	inactive	43 ± 27 µM	>63 µM									
COc1cc(NCc2ccc(F)cc2)ccc1C(=O)NCc1ccc(F)cc1 [28b, N-(4-Fluorobenzyl)-4-[(4-fluorobenzyl)amino]-2-methoxybenzamide]	>8 µM	>8 µM	4.28	4.29	4.3	4.3	> 10 µM	inactive	>8 µM	>8 µM									
CCCCNC(=O)c1c(C)cc(NCc2ccc(F)cc2)nc1OC [36a, N-Butyl-6-[(4-fluorobenzyl)amino]-2-methoxy-4-methylnicotinamide]	24 ± 1 µM	>63 µM			3.7	3.7			17 ± 1 µM	>63 µM	3.7	3.66	11	3.51 ± 0.724 µM	65% and 65 ± 9%				
Cc1cc(N2CCOCC2)nc(N2CCOCC2)c1CNC(=O)c1ccc(F)cc1 [55a, 4-Fluoro-N-[(4-methyl-2,6-dimorpholinopyridin-3-yl)methyl]benzamide]	22 ± 6 µM	>31 µM			3.5	3.5	> 10 µM	inactive	22 ± 7 µM	>31 µM	3.45	3.46							
Cc1cc(N2CCOCC2)nc(N2CCOCC2)c1CNC(=O)Cc1cc(F)cc(F)c1 [55b, 2-(3,5-Difluorophenyl)-N-[(4-methyl-2,6-dimorpholinopyridin-3-yl)methyl]acetamide]	20 ± 7 µM	>250 µM			3.5	3.5	> 10 µM	inactive	24 ± 5 µM	>250 µM	3.52	3.53							
CCOC(=O)Nc1ccc(NCc2ccc(F)cc2)nc1N [compound 1, flupirtine, reference compound]		547 ± 111 µM			2.1	2.1				487 ± 51 µM	2.1	2.06		1.84 ± 0.844 µM	100%	~500 µM	74 ± 40 µM	~500 µM	103 ± 47 µM
CC(C)CNC(=O)c1ccc(NCc2ccc(F)cc2)cc1N [compound 17, 2-Amino-4-[(4-fluorobenzyl)amino]-N-isobutylbenzamide]	56 ± 40 µM	>125 µM	2.75	2.75	2.7	2.7	> 10 µM	inactive	>125 µM	>125 µM									
CCCCNC(=O)c1ccc(NCc2ccc(F)cc2)nc1N [compound 21, 2-Amino-N-butyl-6-[(4-fluorobenzyl)amino]nicotinamide]	148 ± 11 µM	149 ± 11 µM			2.9	2.9	> 10 µM	inactive	145 ± 7 µM	149 ± 7 µM	2.88	2.86							
CCCNC(=O)c1ccc(NCc2ccc(F)cc2)cc1CC.Cl [compound 47, 2-Ethyl-4-[(4-fluorobenzyl)amino]-N-propylbenzamide hydrochloride]	60 ± 9 µM	77 ± 15 µM	3.24	3.23	3.2	3.2	> 10 µM	did not result in any improvement in terms of activity		>125 µM									
Cc1cc(N2CCOCC2)nc(N)c1CNC(=O)Cc1cc(F)cc(F)c1 [compound 61, N-[(2-Amino-4-methyl-6-morpholinopyridin-3-yl)methyl]-2-(3,5-difluorophenyl)acetamide]	>63 µM	>63 µM			2.6	2.6	> 10 µM	inactive	>63 µM	>63 µM	2.57	2.58							
